# Laboratory results taken from ChEMBL document CHEMBL1125749, “trans-3-n-propyl-L-proline is a highly favorable, conformationally restricted replacement for methionine in the C-terminal tetrapeptide of cholecystokinin. Stereoselective synthesis of 3-allyl- and 3-n-propyl-L-proline derivatives from 4-hydroxy-L-proline” (J Med Chem, 1991).
# Square brackets hold non-standard residues; d marks the D form. Peptide text beside a SMILES is read from it. * marks the point of attachment. Nle = CCCC[C@H](N)C(=O)O; Boc = CC(C)(C)OC(=O)*
# Target: T1, Cholecystokinin receptor type A (Cavia porcellus, UniProt Q63931)
# T1 sequence (Q63931 whole entry): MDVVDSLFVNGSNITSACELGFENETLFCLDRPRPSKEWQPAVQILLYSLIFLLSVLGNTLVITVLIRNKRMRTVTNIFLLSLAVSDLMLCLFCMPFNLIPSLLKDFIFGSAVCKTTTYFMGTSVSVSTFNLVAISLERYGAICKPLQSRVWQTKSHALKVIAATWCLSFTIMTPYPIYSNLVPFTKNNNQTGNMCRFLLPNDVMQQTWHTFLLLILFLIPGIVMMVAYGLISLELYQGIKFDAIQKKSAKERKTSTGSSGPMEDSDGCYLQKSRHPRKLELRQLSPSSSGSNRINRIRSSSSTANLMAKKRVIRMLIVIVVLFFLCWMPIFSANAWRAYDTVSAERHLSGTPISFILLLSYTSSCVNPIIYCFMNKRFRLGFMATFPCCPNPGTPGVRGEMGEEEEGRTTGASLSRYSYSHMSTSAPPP
# Assay: Compound was tested for its inhibitory activity in pancreatic cholecystokinin type A receptor in guinea pig
row,IC50 [µM],Compound
1,4,CCCC[C@H](NC(=O)[C@H](Cc1c[nH]c2ccccc12)NC(=O)OC(C)(C)C)C(=O)N[C@@H](CC(=O)O)C(=O)N[C@@H](Cc1ccccc1)C(N)=O (Boc-W[Nle]DF-NH2)
2,2.7,CCC[C@@H]1CCN(C(=O)[C@H](Cc2c[nH]c3ccccc23)NC(=O)OC(C)(C)C)[C@@H]1C(=O)N[C@@H](CC(=O)O)C(=O)N[C@@H](Cc1ccccc1)C(N)=O
3,10.3,C[C@H](NC(=O)[C@H](Cc1c[nH]c2ccccc12)NC(=O)OC(C)(C)C)C(=O)N[C@@H](CC(=O)O)C(=O)N[C@@H](Cc1ccccc1)C(N)=O (Boc-WADF-NH2)
4,2.1,CC(C)(C)OC(=O)N[C@@H](Cc1c[nH]c2ccccc12)C(=O)N1CCC[C@H]1C(=O)N[C@@H](CC(=O)O)C(=O)N[C@@H](Cc1ccccc1)C(N)=O (Boc-WPDF-NH2)
